Results from patent EP4786484A1, “CYCLIC PEPTIDE COMPOUND AND USE THEREOF” (Shenzhen Zhongge Biological Technology Co., Ltd., priority 2023, dated 2026).
Residues, ends and D or L forms follow the SMILES beside them.

What was measured:
[1] = system: Fibroblasts of human origin; test: Fibroblast cytotoxicity test (MTT); type: cell-based; conditions: 24 h, OD 490 nm
Procedure: A. Fibroblast cytotoxicity test
Test materials: Fibroblasts of human origin (Guangdong Boxi Biotechnology Co., Ltd., Lot No. Fb20081902), DMEM culture medium (Gibco, 23042301, expiration date on 230522), PBS (Solarbio, P1010), MTT (Sigma, M5655), DMSO (Sigma, D4540-1L), CO2 incubator (Thermo, 150I), super-clean bench (AIRTECH, SW-CJ-1F), inverted microscope (Olympus, CKX53).
Test methods: • 1) Cell inoculation: After cell resuscitation, the cells were inoculated into 96-well plates when the plating rate reached around 60%, and were incubated overnight in an incubator (37°C, 5% CO2). • 2) Test grouping: The blank group, solvent control group, positive control group, and sample group were set for the test. In the sample group, 7 concentration gradients were set for each sample and 3 duplicate wells were set for each concentration gradient. • 3) Formulation of solutions: Sample working solutions at different concentrations were formulated based on the test concentrations of 0.0781 µM, 0.1563 µM, 0.3125 µM, 0.625 µM, 1.25 µM, 2.5 µM, and 5 µM. • 4) Administration: Administration was performed when the cell plating rate in the 96-well plates reached 50% to 60%. 200 µL of culture medium per well was added for the solvent control group; 200 µL of culture medium containing 10% DMSO per well was added for the positive control group; 200 µL of culture medium containing the sample at a corresponding concentration per well was added for the sample group; The blank group had no cell inoculation, for which only 200 µL of cell culture medium was added. After the administration was complete, the 96-well plates were incubated in an incubator (37°C, 5% CO2) for 24 h. • 5) Detection: After 24 h of cell incubation and culture, the supernatant was discarded, and MTT working solution (0.5 mg/mL) was added. Incubation was performed at 37°C for 4 h in the dark. After the incubation was completed, the supernatant was discarded and 150 µL DMSO was added to each well. The OD value was read at 490 nm. • 6) Calculation of relative viability of cells: Calculation was performed according to the formula below: Relative viability of cells = (Sample well OD−Blank well OD)/(Solvent control well OD−Blank well OD) × 100%. [formula]

[2] = system: Collagen I (type I collagen); test: Collagen I elevation effect in fibroblasts (ELISA); type: cell-based, human; conditions: 1 µM, 24 h; result in words
Source text: (§1) B. Collagen I (type I collagen) elevation effect in fibroblasts, hyaluronic acid (HA) elevation effect in fibroblasts, and elastin (ELN) elevation effect in fibroblasts
(§2) Test materials: Fibroblasts of human origin (Guangdong Boxi Biotechnology Co., Ltd., Lot No. Fb20081902), DMEM culture medium (Gibco, 23042301, expiration date 230522), PBS (Solarbio, P1010), TGF-β1 (Peprotech, 230504), Collagen I ELISA Kit (Cusabio, B21025824), Elastin ELISA kit (Abcam, GR3446070-2), HA ELISA kit (RD, P325066). CO2 incubator (Thermo, 1501), super-clean bench (AIRTECH, SW-CJ-1F), microplate reader (BioTek, Epoch).
(§3) Test methods: • 1) Inoculation: After cell resuscitation, the cells were inoculated into 6-well plates when the plating rate reached around 60%, and were incubated overnight in an incubator (37°C, 5% CO2). • 2) Formulation of solutions: The cyclic peptide compounds in the sample group, PC2 (Biotinoyl-GHK, [drawing 2] ) and PC3 [drawing 3] in the positive reference group were all at the concentration of 1 µM, and the test substance working solutions were formulated. Only the cell culture medium was added for the blank control group (BC). • 3) Administration: When the cell plating rate in the 6-well plates reached 40% to 60%, administration was performed at 2 mL per well. 3 duplicate wells were set for each group. Incubation was performed in an incubator (37°C, 5% CO2) for 24 h. • 4) ELISA assay: The ELISA assay was performed according to the instructions of the ELISA kit, with the detection indicators being Collagen I elevation effect in the fibroblasts, HA elevation effect in the fibroblasts, and elastin elevation effect in the fibroblasts.

hyaluronic acid (HA) = test: Hyaluronic acid (HA) elevation effect in fibroblasts (ELISA); type: cell-based, human; set-up: HA elevation effect in the fibroblasts: unit not given here; conditions: 1 µM, 24 h
Source text: as §1, §2, §3

elastin (ELN) = test: Elastin (ELN) elevation effect in fibroblasts (ELISA); type: cell-based, human; set-up: Elastin elevation effect in the fibroblasts: unit not given here; conditions: 1 µM, 24 h
Source text: as §1, §2, §3

CC(C)C[C@@H]1NC(=O)[C@H](Cc2ccccc2)NC(=O)[C@H](CC(C)C)NC(=O)[C@H](CCCCN)NC(=O)[C@H](Cc2c[nH]cn2)NC(=O)CNC1=O [compound 292] (cyclo(FLGHKL))
Relative viability of cells ([1]; 0.0781 µM): 107.68%
Relative viability of cells ([1]; 0.1563 µM): 107.63%
Relative viability of cells ([1]; 0.3125 µM): 105.05%
Relative viability of cells ([1]; 0.625 µM): 102.37%
Relative viability of cells ([1]; 1.25 µM): 102.07%
Relative viability of cells ([1]; 2.5 µM): 102.88%
Relative viability of cells ([1]; 5 µM): 102.88%
type I collagen (Collagen I) content compared to the BC [2]: significant increase
HA elevation effect in the fibroblasts (hyaluronic acid (HA); ELISA, Blank control (BC) 1402.44): 2635.98
hyaluronic acid (HA) content compared to the BC (hyaluronic acid (HA); result in words): significant increase
Elastin elevation effect in the fibroblasts (elastin (ELN); ELISA, Blank control (BC) 756.52): 1278.99
elastin content compared to the BC (elastin (ELN); result in words): significant increase
